Laboratory results as given in patent US20240390308A1, “APPLICATION METHOD OF POTASSIUM ION CHANNEL BLOCKER IN PREPARATION OF DRUGS FOR TREATING LIVER FIBROSIS” (Affiliated Hospital of Zunyi Medical University, priority 2023, published 2024).

Assays:
[1] = test system: CCl4-induced liver fibrosis in mice; assay: CCl4-induced liver fibrosis in mice, HE staining and Sirius-red staining of liver tissue; type: in vivo
Method: Experimental materials include 60 healthy male C57 mice (20-25g/mouse), gavage needles, 1 milliliter (mL) syringes, CCl4 solution, olive oil and sotalol solution. Experimental method is as follows. The CCl4 solution is dissolved in the olive oil solution (CCl4: olive oil=1:[…]), prepared and used immediately, concentration is 0.1milliliters per 20 grams (0.1 mL/20 g), intragastrically administered twice a week for a total of 8 weeks to the mice. The sotalol solution is mixed with physiological saline, prepared and used immediately, concentration is 1 millimole per liter (mM), 0.2 mL/20 g, and intraperitoneally injected once a day for a total of 6-8 weeks to the mice. The mice are randomly divided into four groups: a. a normal control group; b. a model group, mice are intragastrically administered the CCl4 for 8 weeks; c. a CCl4 and sotalol group, mice are treated with the CCl4 alone for 2 weeks, followed by concurrent administration of the sotalol and CCl4 for 6 weeks; d. a sotalol group, mice are intraperitoneally injected the sotalol for 8 weeks. The mice are sacrificed in sequence at the 2nd, 4th, 6th, and 8th weeks of modeling, one for each group, liver samples of the mice are taken out and placed in a -80 Celsius degree (° C.) refrigerator for quick-frozen storage, and other livers are fixed in 4% paraformaldehyde for 24 hours and then embedded in paraffins. […] Then, all mice are sacrificed, and eyeball blood of mice is taken to measure liver function indexes (alanine transaminase abbreviated as ALT, aspartate transaminase abbreviated as AST). In addition, the liver tissue is fixed with formaldehyde and embedded in paraffins for later use.

[2] = test system: α-SMA, LC3, p62, ZO-1, N-cadherin, vimentin in HSC-T6 cells; assay: Expression of α-SMA, autophagy-related index and EMT markers in HSCs by Western-blot; type: cell-based, rat; settings: sotalol 400 μM, TGF-β1 10 ng/mL, 48 hours
Method: Experimental materials include HSC-T6 cells, a DMEM complete medium, cell culture dishes, a cell lysis solution, a PBS solution, a BCA protein quantitative kit, defatted milk powder, primary antibodies and corresponding secondary antibodies related to α-SMA, autophagy and EMT. Experimental method are as follows. The experiment is grouped into a normal control group, a TGF-β 1 group, a sotalol +TGF-β1 group, and a sotalol group, where the stimulation concentration of the TGF-β1 is 10 ng/mL and concentration of the sotalol is 400 μM. The HSC-T6 cells are cultured by using cell culture dishes, incubated, dosed, and added with TGF-β1according to the conditions described in the embodiment 4. After 48 hours, the incubated cells are rinsed by the precooled PBS solution for 3-4 times, and residual PBS liquid is absorbed with a filter paper, 50 μL radioimmune precipitation assay (RIPA) and 0.5 μL (100:1) phenylmethanesulfonyl fluoride (PMSF) with […] concentration are added in a 50 mL culture flask and placed on ice for 30 minutes. Then, the protein is scraped by a cell scraper from the culture flask and suctioned out into the EP tubes, and centrifuged at 12000 rpm for 30 minutes at 4° C. A standard curve is made, 1 μL protein samples, 19 μL PBS solution and 200 μL (50:1) BCA working solution are added in each well of the 96-well plate, and two replicate wells are added per well. The 96-well plate is put in a 37° C. drying oven for 30 minutes. The OD value at 560 nm is measured by using an enzyme-linked immunosorbent assay on the machine to calculate the concentration of the protein. The protein is boiled in boiling water for 5 minutes before samples loading, and the samples are performed with gel electrophoresis, membrane transfer and blocking sequentially, then the treated samples are exposed after incubating with the primary antibodies and the secondary antibodies.

[3] = test system: HSC-T6 cells; assay: Sotalol and TGF-β1 co-culture, proliferation of hepatic stellate cells detected by CCK-8; type: cell-based, rat; settings: sotalol 200, 400, 800, 1000 μM added 3 hours before TGF-β1 10 ng/ml; 48 hours incubation
Method: Experimental materials include HSC-T6 cells (also referred to as immortalized hepatic rat stellate cell line), a Dulbecco's modified Eagle's medium (DMEM) complete medium, a 96-well plate, a counting chamber (also referred to as hemocytometer), CCK-8 working solution, and the like. Experimental method are as follows. The HSC-T6 cells are cultured in the DMEM culture medium containing 10% fetal bovine serum, 1% double antibodies (penicillin-streptomycin solution) and 1% nonessential amino acid (NEAA) at 37° C. and 5% CO2, and the cells are digested by using trypsin for passage cultivation after the cells are converged to 80% to 90%. Next, the cells are inoculated in the plate, specifically, a density of 7×10^6 cells per liter (cells/L) cell suspension is taken and added at 100 μL cell suspension per well to the 96-well culture plate, each group has 6 replicate wells. […] After incubation for 48 hours, 100 μL of “10% CCK-8 and 90% medium” mixed solution is added to each well and incubated for 1 hour to 4 hours at 37° C., the wavelength is set at 450 nm, and absorbance value is read and recorded at the corresponding wavelength by using a fully-automated enzyme labeling instrument. Effects of sotalol on cell proliferation are detected by CCK-8, and an optimal time of action and an optimal drug concentration are screened.

[4] = test system: α-SMA, LC3, p62, N-cadherin, vimentin, ZO-1 in liver tissue; assay: Expression of α-SMA, autophagy-related index and EMT markers in liver tissue by Western-blot; type: in vivo, mice; settings: liver tissue induced by CCl4, after treatment with sotalol
Excerpt: Experimental materials include mouse liver tissue, a tweezer, a scissor, 2 millimeters (mm) steel balls, a magnet, a cell lysis solution, a PBS solution, a bicinchoninic acid (BCA) protein quantitative kit, defatted milk powder, and primary antibodies and corresponding secondary antibodies related to α-SMA, autophagy and EMT. Experimental method are as follows. The liver tissue in the embodiment 1 is taken about the size of a grain of rice by using the tweezer and the scissor, added to labeled 1.5 mL Eppendorf (EP) tubes, two 2 mm steel balls and 200-250 microliter (μL) cell lysis solution are added into each of the EP tubes, after the parameters are set, and the EP tubes are placed in the grinder for full grinding. Then, the steel balls are sucked out by using the magnet, and after being applied to the ice for 30 minutes, the EP tubes are centrifuged at 12000 revolutions per minute (rpm) for 30 minutes at 4° C. A standard curve is made, 1 μL protein samples, 19 μL PBS solution and 200 μL (50:1) BCA working solution are added in each well of a 96-well plate, and two replicate wells are added per well. The 96-well plate is put in a 37°° C. drying oven for 30 minutes. The optical density (OD) value at 560 nanometers (nm) is measured by using an enzyme-linked immunosorbent assay (ELISA) on the machine to calculate the concentration of the protein. The protein is boiled in boiling water for 5 minutes before samples loading, and the samples are performed with gel electrophoresis, membrane transfer and blocking sequentially, then the treated samples are exposed after incubating with the primary antibodies and the secondary antibodies.

[5] = test system: α-SMA; assay: α-SMA expression in liver tissue detected by immunohistochemistry; type: in vivo; settings: liver fibrosis mice induced by CCl4, treated with sotalol
Method: Experimental methods are as follows. The paraffin blocks prepared in the embodiment 1 are taken and performed immunohistochemistry according to the procedures after slicing into slices. The slices are soaked in 100%, 95%, 80%, and 75% ethanol for 5 minutes sequentially in that order, then rinsed them with the PBS solution, catalase is removed by using hydrogen peroxide, and antigens are repaired by sodium citrate repair solution. After cooling, the treated slices are rinsed with the PBS solution, sealed at room temperature for 30 minutes, then incubated overnight at 4° C. with primary antibodies, and incubated at room temperature with secondary antibodies for 1 hour on the next day. Then, the incubated slices are stained with diaminobenzidine (DAB), counterstained with hematoxylin, differentiated with hydrochloric acid alcohol, dehydrated, sealed, and finally observed and photographed under the microscope.

[6] = CCl4 and sotalol group: CCl4 alone 2 weeks, then sotalol (1 mM, 0.2 mL/20 g, i.p. once a day) plus CCl4 for 6 weeks, vs model group

collagen fibers (Sirius-red staining), induction of liver fibrosis by sotalol alone ([1]; sotalol group: sotalol 1 mM, 0.2 mL/20 g, i.p. once a day for 8 weeks, no CCl4): no obvious collagen fibers are observed
SMILES: CC(C)NCC(O)c1ccc(NS(C)(=O)=O)cc1 (centres unmarked) [sotalol]
degree of damage of the liver tissue (HE staining) [1, 6]: significantly reduced | degree of fibrous tissue proliferation (HE staining) [1, 6]: significantly reduced | accumulation of P62 in HSCs (Western-blot) [2]: promoted | accumulation of ZO-1 in HSCs (Western-blot) [2]: promoted | expression of LC3 in HSCs (Western-blot) [2]: significantly inhibited | expression of N-cadherin in HSCs (Western-blot) [2]: inhibited | expression of vimentin in HSCs (Western-blot) [2]: inhibited | expression of α-SMA in HSCs (Western-blot) [2]: significantly reduced | TGF-β1-induced proliferation trend of HSC-T6 cells (CCK-8) [3]: inhibited | accumulation of ZO-1 in liver tissue (Western-blot) [4]: promoted | accumulation of p62 in liver tissue (Western-blot) [4]: promoted | expression of LC3 in liver tissue (Western-blot) [4]: significantly reduced | expression of N-cadherin in liver tissue (Western-blot) [4]: inhibited | expression of vimentin in liver tissue (Western-blot) [4]: inhibited | expression of α-SMA in liver tissue (Western-blot) [4]: significantly reduced | expression of α-SMA in liver tissue (immunohistochemistry) [5]: down-regulate
